Values of other authors as cited in patent US20020064834A1, “Microbiological production method for alpha-L-aspartyl-L-phenylalanine” (priority 1999, published 2002).
Residues, ends and D or L forms follow the SMILES beside them.

Settings: relative to sucrose

COC(=O)[C@H](Cc1ccccc1)NC(=O)[C@@H](N)CC(=O)O [APM, α-L-aspartyl-L-phenylalanine methyl ester] (H-Asp-Phe-OMe)
sweetness as potent as the sweetness of sucrose: about 200 ×
